Measurements published in PMC9088311, “Cyclic Thiosulfonates for Thiol-Mediated Uptake: Cascade Exchangers, Transporters, Inhibitors” (JACS Au, 2022).
Converted amounts (≈) assume the structure as drawn. “And” between values parts separate entries of the source, which are not always exact repeats. Equal entries are not always repeated. Where two headings read alike, the source gives them in different places.

Columns and labels:
in vitro = details: human
HeLa Kyoto cells = experiment: Relative viability (HOE/PI) in HCHT screening
Procedure: One advantage of HCHT imaging of cellular uptake compared to flow cytometry[38],[42],[43] is that it simultaneously gives information on toxicity and intracellular localization. […] Information on the intracellular localization of reporters can be quantified through segmentation of cellular compartments stained with specific markers.[52]
(§1) Uptake inhibition was measured by the automated HCHT imaging used already to elaborate on cytosolic delivery. For inhibitor screening, HK cells in multiwell plates were incubated with increasing concentrations of inhibitors, followed by fluorescent transporters 28, 31, and 32 at a constant concentration. […] If inhibitors are removed before the addition of transporters 28, 31, and 32, the method is referred to as “pre-incubation”. This is of interest to minimize exchange between the transporter and the inhibitor but is often problematic because dynamic covalent exchange between the inhibitor and cellular target can also be reversed and thus lost. The complementary “co-incubation” operates without inhibitor removal before the addition of transporters 28, 31, and 32.
Relative cell viability ( RV) for each condition in the presence of inhibitors was calculated […]
of the relative cell viability ( RVrel) to the concentration of inhibitors ( cinhibitor ) was plotted and fitted with Equation (S19) to retrieve the concentration causing 50% cell growth inhibition (RV50) value and the Hill coefficient ( n).

HK cells, transporter 28 = experiment: HCHT imaging: inhibition of cytosolic delivery of CTO transporter 28; format: cell-based, Human; details: inhibitor 1 h; for IC15: read-out: MIC (concentration needed to reach 15% inhibition), transporter 28 5 μM
Procedure: as §1
(§2) 536/40 nm emission filter, and red with 531/40 nm excitation filter and 593/40 nm emission […]
(§3) 4.3. HCHT Inhibitor Screening
(§4) Pre-Incubation Method. As in ref. S1. HeLa Kyoto cells were seeded at 8 ×10^4 cells/mL in FluoroBrite DMEM + 10% FBS on μ-Plate 96-well Black ibiTreat sterile and incubated at 37 °C with 5% CO 2 for 24 h. Then, the medium was removed and cells were washed with PBS ([…]), fresh FluoroBrite DMEM medium (4 × 150 μL/well) was added into the cells using a plate washer (Biotek EL406®), keeping a final volume of 135 μL/well. Different concentrations of the inhibitors were prepared by serial dilution with 10% final concentration DMSO (10× in PBS). The solution of compounds 4 and 33 was prepared final DMSO concentration of 10% in each dilution (10× in PBS). These inhibitor solutions (10× final concentration), transporter 28 (10× in DMEM), transporters 31 and 32 (10× in PBS) a solution of HOE (100 μg/mL) and PI (10 μg/mL) in PBS were prepared freshly in a 96-well V-bottom plate before adding to the cells. The inhibitor solutions from the V-bottom plate were added to the cells (15 μL/well) in a final volume of 150 μL/well using an electronic multichannel pipette and cells were incubated for 1 h at 37 °C with 5% CO 2. After this incubation, cells were washed again with PBS and DMEM using the plate washer (in the way mentioned above), and transporter 28 , 31 or 32 from the V-bottom plate was added (15 μL/well) to the cells in a final volume of 150 μL/well. A final concentration of each transporter 28 , 31 and 32 was 5 μM, 10 μM and 0.5 μM, respectively, except for the control wells, where only PBS was added (15 μL/well). Cells treated with transporter 28 or 31 were incubated for 30 min, and cells treated with 32 were incubated for 2 h at 37 °C with 5% CO 2. After that, the cells were washed with PBS and DMEM using the plate washer, and the solution of Hoechst 33342 and PI from the V-bottom plate was added (15 μL/well) to the cells in a final volume of 150 μL/well. After 15 min of incubation at 37 °C with 5% CO 2, the cells were washed and kept in clean FluoroBrite
(§5) DMEM. For live cell imaging, samples were kept at 37 °C with 5% CO 2 during the microscope imaging. The distribution of fluorescence stained cells was analyzed without fixing using an […]

HK cells, transporter 31 = experiment: HCHT imaging: inhibition of cytosolic delivery of ETP transporter 31; format: cell-based, Human; details: inhibitor 1 h; for IC50 / IC15: Homo sapiens; for IC50: read-out: IC50 (concentration needed to reach 50% inhibition), transporter 31 10 μM; for IC15: read-out: MIC (concentration needed to reach 15% inhibition), transporter 31 10 μM; for MIC (concentration needed to reach 15% inhibition): transporter 31 10 μM
Procedure: as §1, §2, §3, §4, §5

HK cells, transporter 32 = test system: HK cells, transporter 32; parameters: method as in PMID 34173696; key to inhibition of OPS 32 uptake (heatmap): –: −: inactive; ++: qualitative inhibition of SC2 uptake; details: cited from earlier work
trypsin = experiment: Trypsin inhibition (preliminary, not shown); format: biochemical; details: 10 μM; preliminary results, not shown
cathepsin L = cathepsin L (Homo sapiens, UniProt P07711); experiment: Cathepsin L inhibition (preliminary, not shown); format: biochemical; details: 10 μM; preliminary results
cathepsin B = cathepsin B (Homo sapiens, UniProt P07858); experiment: Cathepsin B inhibition (preliminary, not shown); format: biochemical; details: 10 μM; preliminary results
[1] = Dynamic covalent ring opening with thiol 10, 1H NMR kinetics; format: physicochemical; details: pD 2.7
Procedure: The dynamic covalent opening of CTO 3 with thiols yields product 9 with a disulfide and a sulfinate (Figure 3B). Consistent with short chalcogen bonds found in silico, the opening of CTO 3 was instantaneous on an NMR timescale with most thiols. To decelerate ring opening, bulky thiols were considered in combination with lowered pH to deactivate the nucleophile. With N-Ac-D-penicillamine 10, the opening of 5 mM CTO 3 in phosphate buffer/DMSO-d6 9:1 was still immediate at pD 6.7 but became detectable in ^1H NMR spectroscopy kinetics under more acidic conditions. The ring-opening rate constants k^O were estimated by fitting the initial velocities to second-order kinetics. Only lower bound rates were approximated from the earliest determined substrate conversions when reactions were still too fast despite the unfavorable conditions. At pD 5.4, dynamic covalent ring opening of CTO 3 with equimolar tertiary thiol 10 occurred with k^O > 0.49 M^–1 s^–1 and equilibrated at K = 6.0 × 10^3 M^–1 (Table 1, entry 1, Figures S4 and S5). At pD 2.7, further deceleration to k^O = 0.10 M^–1 s^–1 shifted the equilibrium to K = 500 M^–1 (Table 1, entry 2, Figures S6 and S7). […] At equilibrium, the concentration of thiol 10 further decreased slowly due to oxidation into the homodimer (Figure 3C, diamonds).
Equilibrium constants for reactions with two reactants A and B and a product C are […]
3.1.1. Dynamic Covalent Ring Opening with Thiols
General procedure A (at 5 mM): To a solution of deuterated sodium phosphate (200 mM in D 2O, pD 2.7 or 5.4, 180 mM final concentration), a stock solution of substrate (0.10 M in DMSO-d6, 5.0 mM final concentration) was added and stirred. Then a stock solution of 10 (0.10 M in DMSO- d6, 5.0 mM final concentration) was added and vigorously stirred at room temperature. The solution was transferred immediately to an NMR tube and NMR data were recorded repeatedly. The concentration of the substrate or thiol at each time plot was calculated by comparing the integrals of the peaks indicated with arrows in the figures, and plotted. The data points were fitted to obtain k1 with the Equation (S6) or (S7) using Graphpad Prism.
General procedure B (at 2 mM): To a solution of deuterated sodium phosphate (200 mM in D 2O, pD 2.7 or 5.4, 180 mM final concentration), DMSO- d6 (10% DMSO- d6 in the reaction mixture) and a stock solution of substrate (0.10 M in DMSO- d6, 2.0 mM final concentration) were added and stirred. Then a stock solution of 10 (0.10 M in DMSO- d6, 2.0 mM final concentration) was added and vigorously stirred at room temperature. The solution was transferred immediately to an NMR tube and NMR data were recorded repeatedly. The concentration of the substrate or thiol at each time plot was calculated by comparing the integrals of the peaks indicated with arrows in the figures, and plotted. The data points were fitted to obtain k1 with the Equation (S6) or (S7) using Graphpad Prism.
General procedure C (for thiosulfinates): To a solution of deuterated sodium phosphate (200 mM in D 2O, pD 5.4, 170 mM final concentration), a stock solution of substrate (0.10 M in DMSO- d6, 5.0 mM final concentration) was added and stirred. Then a stock solution of 10 (0.10 M in DMSO- d6, 10 mM final concentration) was added and vigorously stirred at room […]
data points were fitted to obtain k1 with the Equation (S14) or (S16) using Graphpad Prism. […]
3.1.2. Dependence of Ring Opening on Proticity
A mixture of deuterated phosphoric acid and NaOD (30% in D 2O), which gave pD 2.7 in D2O, was used as buffer in all solvent mixtures. To a solution of deuterated sodium phosphate (20 mM final concentration) in a mixture of D 2O and DMSO- d6 (540 μL, final D 2O content: […]
concentration) was added and stirred. Then a stock solution of 10 (0.10 M in DMSO- d6, 5.0 mM final concentration) was added and vigorously stirred at room temperature. The solution was transferred immediately to an NMR tube and 1H NMR data were recorded repeatedly. […]

[2] = with transporter 28, co-incubation (C)
[3] = Homo sapiens, 1 h, read-out: IC50 (concentration needed to reach 50% inhibition), transporter 28 5 μM, co-incubation (C)
[4] = Homo sapiens, 1 h, co-incubation (C)
[5] = transporter 28 5 μM, co-incubation (C)
[6] = Homo sapiens, 1 h, pre-incubation (P)
[7] = Homo sapiens, read-out: IC50 (concentration needed to reach 50% inhibition), transporter 28 5 μM, pre-incubation (P)
[8] = transporter 28 5 μM, pre-incubation (P)

Sequence of cathepsin L (P07711 114-333, species assumed): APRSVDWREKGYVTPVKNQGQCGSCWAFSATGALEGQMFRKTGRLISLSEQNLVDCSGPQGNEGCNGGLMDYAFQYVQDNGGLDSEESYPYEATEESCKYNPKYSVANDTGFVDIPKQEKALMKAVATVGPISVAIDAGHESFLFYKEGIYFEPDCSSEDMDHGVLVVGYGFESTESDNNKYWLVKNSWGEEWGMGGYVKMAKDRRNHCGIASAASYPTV

O=C(NCCCCCCNC(=O)O[C@H]1CSS(=O)(=O)C[C@H]1OCc1ccccc1)O[C@H]1CSS(=O)(=O)C[C@H]1OCc1ccccc1 [Compound 33]
viability at 7 h, 10 µM (in vitro): 107%
RV50 (concentration needed to lower relative viability by 50%) (HeLa Kyoto cells; [2]): >5 µM
IC50 (HK cells, transporter 28; [3]): > 5 µM
IC15 (HK cells, transporter 28; [4]): 1.3 µM
MIC (concentration needed to reach 15% inhibition) (HK cells, transporter 28; [5]): 1 µM

O=C(NCCCCCCNC(=O)O[C@H]1CSS(=O)(=O)C[C@H]1O)O[C@H]1CSS(=O)(=O)C[C@H]1O [Compound 41]
viability at 7 h, 5 µM (in vitro): 100%
RV50 (concentration needed to lower relative viability by 50%) (HeLa Kyoto cells; [2]): >50 µM
IC50 (HK cells, transporter 28; [3]): 8 µM
IC15 (HK cells, transporter 28; [4]): 1 µM
MIC (concentration needed to reach 15% inhibition) (HK cells, transporter 28; [5]): 1 µM

O=C(O)Cn1[se]c2ccccc2c1=O [Compound 45, reference compound]
IC50 (HK cells, transporter 31; 1 h, co-incubation (C)): 8 µM
IC15 (HK cells, transporter 31; 1 h, co-incubation (C)): 2.2 µM
IC15 (HK cells, transporter 31; 1 h, pre-incubation (P)): < 1 µM
IC50 (HK cells, transporter 31; pre-incubation (P)): 10 µM
MIC (concentration needed to reach 15% inhibition) (HK cells, transporter 31; co-incubation (C)): 2 µM
MIC (concentration needed to reach 15% inhibition) (HK cells, transporter 31; pre-incubation (P)): <1 µM
viability at 7 h, 50 µM (in vitro): 81%
inhibition of OPS 32 uptake (heatmap) (HK cells, transporter 32; pre-incubation conditions): –
IC50 (HK cells, transporter 32; read-out: IC50 (concentration needed to reach 50% inhibition), transporter 32 0.5 or 1 μM, pre-incubation (P)): > 100 µM
MIC (concentration needed to reach 15% inhibition) (HK cells, transporter 32; transporter 32 0.5 or 1 μM, pre-incubation (P)): >100 µM
IC15 (HK cells, transporter 28; [6]): 1.2 µM
IC50 (HK cells, transporter 28; [7]): 8 µM
MIC (concentration needed to reach 15% inhibition) (HK cells, transporter 28; [8]): 1 µM (≈ 0.256 µg/mL)

CC(C)(C)[Si](C)(C)OC1CS(=O)(=O)SCC1OC(=O)NCCCCCCNC(=O)OC1CSS(=O)(=O)CC1O[Si](C)(C)C(C)(C)C (centres unmarked) [Compound 4]
inhibition of trypsin (trypsin): > 80%
viability at 7 h, 10 µM (in vitro): 103%
inhibition of cathepsin L (in words) (cathepsin L): neither cathepsin L nor B
RV50 (concentration needed to lower relative viability by 50%) (HeLa Kyoto cells; [2]): >5 µM
inhibition of cathepsin B (in words) (cathepsin B): neither cathepsin L nor B
IC50 (HK cells, transporter 28; [3]): 16 ± 7 µM
IC15 (HK cells, transporter 28; [4]): 0.3 µM
IC50 (HK cells, transporter 28; read-out: IC50 (concentration needed to reach 50% inhibition), transporter 28 5 μM, co-incubation (C)): ~15 µM

CC(C)(C)[Si](C)(C)O[C@H]1CS(=O)(=O)SC[C@H]1OC(=O)NCCNC(=O)CC(O)(CC(=O)NCCNC(=O)O[C@H]1CSS(=O)(=O)C[C@H]1O[Si](C)(C)C(C)(C)C)C(=O)NCCNC(=O)O[C@@H]1CSS(=O)(=O)C[C@@H]1O[Si](C)(C)C(C)(C)C (some centres unmarked) [Compound 42]
viability at 7 h, 10 µM (in vitro): 107%
RV50 (concentration needed to lower relative viability by 50%) (HeLa Kyoto cells; with transporter 28, pre-incubation (P)): 22 ± 3 µM and 22 µM
IC15 (HK cells, transporter 28; [6]): 1.8 µM
IC50 (HK cells, transporter 28; [7]): 5.1 ± 0.4 µM
IC50 (HK cells, transporter 28; read-out: IC50 (concentration needed to reach 50% inhibition), transporter 28 5 μM, pre-incubation (P)): 5 µM
MIC (concentration needed to reach 15% inhibition) (HK cells, transporter 28; [8]): 2 µM (≈ 2.58 µg/mL)

CC1(C)O[C@H]2CSS(=O)(=O)C[C@H]2O1 [Compound 13]
k^O, rate constant of ring opening (or equivalent for acyclic controls) ([1]; equimolar 10, rt, 90% D2O, Na+ phosphate 180 mM, substrate 2 mM): 2.3 M^–1 s^–1
krel^O, rate constant of ring opening relative to 3 ([1]; 90% D2O, 2 mM): 23
ring-opening rate relative to acyclic control 14 (fold) ([1]; with thiol 10, 2 mM): about 4 ×
IC50 (HK cells, transporter 31; 1 h, co-incubation (C)): > 10 µM
IC15 (HK cells, transporter 31; 1 h, co-incubation (C)): > 10 µM
viability at 7 h, 5 µM (in vitro): 125 ± 5%
RV50 (concentration needed to lower relative viability by 50%) (HeLa Kyoto cells; with transporter 31, co-incubation (C)): 29 ± 6 µM
